Measurements: patent US11234982B2, “Methods for treating ocular surface pain” (NOVARTIS AG, priority 2019, dated 2022)
“Also recorded” adds a separate entry of the source.

Tested on: patients undergoing photorefractive keratectomy (PRK) surgery
Assay: PRK study: adverse events
Format: in vivo, human
Protocol: The study was a proof of concept, double-masked, randomized, vehicle-controlled study of compound I administered as eye drops in addition to standard of care treatment in patients after PRK surgery. PRK surgery was performed as an outpatient procedure under topical anesthesia with removal of the corneal epithelium to expose the stroma for the laser ablation. Compound I dosing was as single eye drop of 2.5% (25 mg/ml, 0.925 mg/drop), administered four times daily (every six hours) in one eye from immediate post-op (time 0) to last dose at 72 hours.
Safety assessments consisted of collecting all AEs, SAEs, with their severity and relationship to study drug. Only signs and symptoms greater than the listed ranges of either severity or duration were reported as AEs.
Adverse events and serious adverse events included an assessment of both systemic and ocular assessments. Systemic safety assessments included regular assessments of height and weight, vital signs, reporting medication errors including misuse/abuse, pregnancy reporting and early phase safety monitoring. The misuse/abuse, pregnancy reporting and early phase safety monitoring were not assessed for the study. Ocular safety assessments included the following: • Best-corrected visual acuity (BCVA) and uncorrected visual acuity (UCVA): Was measured at each visit using an ETDRS visual acuity chart at 4 meters (13 feet) or 1 meter (for patients that cannot read the 4 meter chart). The BCVA scoring was done based on the number of correctly read letters plus 30. If visual acuity was so poor that the patient could not read any of the largest letters at 1 meter, count fingers and hand movement vision and light perception was tested. • Intraocular Pressure (TOP): IOP measurements were conducted with applanation tonometry or Tonopen. • Dilated fundus exam: The dilated fundus examination included ophthalmoscopic assessments of the vitreous, retina/macula/choroid, and optic nerve. Evaluations for retinal tear/detachment, retinal hemorrhage, vitreous hemorrhage density, vitreous haze grading and abnormal findings were done and scored according to grading criteria. • Ocular hyperemia: Conjunctival redness of the bulbar conjunctiva in each eye at the slit lamp according to the McMonnies redness scale was graded. […] By adjusting the calibrated slit beam width and height, the maximum horizontal (wound width) and vertical dimensions (wound height) of the surgical epithelial wound was estimated. The evaluation was performed until wound closure and report of wound size as 0 horizontal and 0 vertical dimensions. • Slit-lamp biomicroscopy: Ocular signs (eyelids/conjunctiva, cornea, lens, and iris/anterior chamber) was assessed in both eyes by slit lamp biomicroscopy according to the grading criteria. • Blink rate: A blink was defined as a bilateral paroxysmal closure of the eyelids (duration<1 second) in the absence of a provoking external stimulus. Each blink assessment lasted for 2 min (or as close to 2 minutes as possible with minimum time 1 minute) and the obtained blink rate was averaged to calculate blink rate in blinks/min. • Tear production (Schirmer's test without anesthesia): The test was performed without anesthetic in both eyes simultaneously. Tear secretion was measured in millimeters of the length of strip wetted by tears. […] The strip was wetted with 1 drop of sterile saline and flicked to remove excess saline. The patient blinked several times to ensure dispersion of the dye throughout the tear film prior to grading on a scale of 0-3 (0=Normal, No staining; 1=Mild, Superficial stippling micropunctate staining; 2=Moderate, Macropunctate staining with some coalescent areas and 3=Severe, Numerous coalescent macropunctate areas and/or patches) for each of 5 zones (central plus 4 quadrants).

CC(C)c1nc2cc(O)ccc2c(=O)n1-c1ccc(C#N)cc1 [Compound I, 4-(7-hydroxy-2-isopropyl-4-oxo-4H-quinazolin-3-yl)-benzonitrile]
Non-ocular AE Arthralgia: Procedure related (Compound I 2.5%): no | Non-ocular AE Arthralgia: Severity (Compound I 2.5%): mild | Non-ocular AE Headache: Procedure related (Compound I 2.5%): no | Non-ocular AE Headache: Severity (Compound I 2.5%): mild | Non-ocular AE Nasopharyngitis: Procedure related (Compound I 2.5%): no | Non-ocular AE Nasopharyngitis: Severity (Compound I 2.5%): mild, mild | Non-ocular AE Oropharyngeal Pain: Procedure related (Compound I 2.5%): no | Non-ocular AE Oropharyngeal Pain: Severity (Compound I 2.5%): mild | Non-ocular AE Pyrexia: Procedure related (Compound I 2.5%): no | Non-ocular AE Pyrexia: Severity (Compound I 2.5%): moderate | Non-ocular AE Sinus Congestion: Procedure related (Compound I 2.5%): no | Non-ocular AE Sinus Congestion: Severity (Compound I 2.5%): moderate | Non-ocular AE Sinusitis: Procedure related (Compound I 2.5%): no | Non-ocular AE Sinusitis: Severity (Compound I 2.5%): moderate | Non-ocular AE Vomiting: Procedure related (Compound I 2.5%): no | Non-ocular AE Vomiting: Severity (Compound I 2.5%): moderate | Ocular AE Corneal Opacity: Procedure related (Compound I 2.5%): yes | Ocular AE Corneal Opacity: Severity (Compound I 2.5%): mild | Ocular AE Posterior Vitreous Detachment: Procedure related (Compound I 2.5%): no | Ocular AE Posterior Vitreous Detachment: Severity (Compound I 2.5%): mild | Ocular AE Punctate Keratitis: Procedure related (Compound I 2.5%): yes | Ocular AE Punctate Keratitis: Severity (Compound I 2.5%): mild | Non-ocular AE Arthralgia: patients (Compound I 2.5%, N = 40): 1 (2.5) n (%) | Non-ocular AE Headache: patients (Compound I 2.5%, N = 40): 1 (2.5) n (%) | Non-ocular AE Nasopharyngitis: patients (Compound I 2.5%, N = 40): 2 (5.0) n (%) | Non-ocular AE Oropharyngeal Pain: patients (Compound I 2.5%, N = 40): 1 (2.5) n (%) | Non-ocular AE Pyrexia: patients (Compound I 2.5%, N = 40): 1 (2.5) n (%) | Non-ocular AE Sinus Congestion: patients (Compound I 2.5%, N = 40): 1 (2.5) n (%) | Non-ocular AE Sinusitis: patients (Compound I 2.5%, N = 40): 1 (2.5) n (%) | Non-ocular AE Tinnitus: patients (Compound I 2.5%, N = 40): 0 n (%) | Non-ocular AE Vomiting: patients (Compound I 2.5%, N = 40): 1 (2.5) n (%) | Number of AEs (Compound I 2.5%, N = 40): 12 | Number of drug-related AEs (Compound I 2.5%, N = 40): 0 | Number of mild severity AEs (Compound I 2.5%, N = 40): 8 | Number of moderate severity AEs (Compound I 2.5%, N = 40): 4 | Number of non-ocular AEs (Compound I 2.5%, N = 40): 9 | Number of ocular AEs (Compound I 2.5%, N = 40): 3 | Number of procedure-related AEs (Compound I 2.5%, N = 40): 2 | Number of severe AEs (Compound I 2.5%, N = 40): 0 | Ocular AE Corneal Infiltrate: patients (Compound I 2.5%, N = 40): 0 n (%) | Ocular AE Corneal Opacity: patients (Compound I 2.5%, N = 40): 1 (2.5) n (%) | Ocular AE Posterior Vitreous Detachment: patients (Compound I 2.5%, N = 40): 1 (2.5) n (%) | Ocular AE Punctate Keratitis: patients (Compound I 2.5%, N = 40): 1 (2.5) n (%) | Patients with at least one AE (Compound I 2.5%, N = 40): 8 (20) n (%) | Patients with at least one non-ocular AE (Compound I 2.5%, N = 40): 6 (15) n (%) | Patients with at least one ocular AE (Compound I 2.5%, N = 40): 3 (7.5) n (%) | Differences in safety between compound I and Vehicle (PRK study): no observed clinically meaningful differences in safety | Deaths, SAEs, discontinuations due to AEs (PRK study, 2.5% four times daily for 72 hours): no deaths or SAEs or discontinuation of the drug or discontinuation from the study due to AEs; also recorded: no deaths, or serious or severe AEs, treatment discontinuations or study discontinuations
